Data: patent publication US11566007B2, “Ras inhibitors” (Revolution Medicines, Inc., priority 2019, dated 2023)
Read-outs that look alike come from different tables or passages of the source.

Columns and labels:
[1] = system: NCI-H358 cells (K-Ras G12C); assay: Potency assay: pERK in NCI-H358 cells; type: cell-based, human; details: H358 KRAS G12C, read-out: pERK EC50
Method in brief: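 4 h cpd, 37 °C; 10-pt 3-fold series, 10 mM DMSO top stock, duplicates. Readout pERK: AlphaLISA SureFire Ultra or In-Cell Western (IR-800CW secondary, DRAQ5 DNA stain). IC50, 4-PL fit vs log conc.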

[2] = system: NCI-H358 (K-Ras G12C); assay: CellTiter-Glo cell viability assay, NCI-H358; type: cell-based, human; details: NCI-H358, 5-day treatment, class symbols, read-out: Additional H358 Cell Viability assay data (K-Ras G12C, IC50)
Method in brief: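 Viability measured by CellTiter-Glo luminescence on day 5 following direct addition of compound to plated cells. Values expressed as percent of mean DMSO signal; curves fitted with a four-parameter logistic model.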

[3] = molecular target: KRAS G12S (Homo sapiens (Human), UniProt P01116+P62937, G12S); assay: Ras-Raf (BRAF RBD) disruption / FRET / MOA assay, KRAS G12S; type: biochemical; details: Ras-Raf disruption/FRET/MOA assay; class symbols; read-out: KRAS G12S FRET data IC50
Method in brief: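 Ternary complex formation (Ras–compound–cyclophilin A) displacing BRAF RBD, monitored by TR-FRET. Three hours at 25° C with compound (top 30 μM final), then 1.5 h with the labelled antibodies. Lower ratio than DMSO indicates disruption; IC50 reported.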

Sequence of KRAS G12S (P01116-2 other isoform, or with tags, fused parts or gaps G12S): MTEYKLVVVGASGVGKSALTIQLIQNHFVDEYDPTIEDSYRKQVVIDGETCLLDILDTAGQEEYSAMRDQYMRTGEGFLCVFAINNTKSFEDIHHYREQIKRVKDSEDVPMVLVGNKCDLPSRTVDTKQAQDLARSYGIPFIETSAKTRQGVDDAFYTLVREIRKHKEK
Sequence of KRAS G12S (P62937 whole entry): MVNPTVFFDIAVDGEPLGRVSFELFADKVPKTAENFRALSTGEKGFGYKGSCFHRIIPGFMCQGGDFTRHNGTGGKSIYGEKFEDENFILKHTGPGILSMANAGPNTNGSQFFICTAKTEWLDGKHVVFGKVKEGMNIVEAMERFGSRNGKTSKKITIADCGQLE

| SMILES | EC50 ([1]; Homo sapiens, NCI-H358) | IC50 ([2]; Homo sapiens, NCI-H358, 120 h) | IC50 [3] | EC50 [1] | IC50 [2] |
| --- | --- | --- | --- | --- | --- |
| C=CC(=O)N1CC[C@@]2(CCN([C@H](C(=O)N[C@H]3Cc4cc(O)cc(c4)-c4ccc5c(c4)c(c(-c4ccccc4CCOC)n5CC)CC(C)(C)COC(=O)[C@@H]4CCCN(N4)C3=O)C(C)C)C2=O)C1 [Example A68] | < 5000 nM | 100 to 1000 nM | – | – | – |
| C=CS(=O)(=O)N1CC[C@H](C(=O)N(C)[C@H](C(=O)N[C@H]2Cc3cc(O)cc(c3)-c3ccc4c(c3)c(c(-c3cccnc3COC)n4CC)CC(C)(C)COC(=O)[C@@H]3CCCN(N3)C2=O)C(C)C)C1 [Example A69] | < 5000 nM | 10 to 100 nM | – | – | – |
| C=CC(=O)N1CC(C(=O)N(C)[C@H](C(=O)N[C@H]2Cc3cc(O)cc(c3)-c3ccc4c(c3)c(c(-c3cccnc3COC)n4CC)CC(C)(C)COC(=O)[C@@H]3CCCN(N3)C2=O)C(C)C)C1 [Example A70] | < 5000 nM | 10 to 100 nM | – | – | – |
| CCn1c(-c2cccnc2COC)c2c3cc(ccc31)-c1cc(O)cc(c1)C[C@H](NC(=O)[C@H](C(C)C)N(C)C(=O)C1CN(C(=O)/C=C/CN(C)C)C1)C(=O)N1CCC[C@H](N1)C(=O)OCC(C)(C)C2 [Example A71, (2S)-2-(1-{1-[(2E)-4-(dimethylamino)but-2-enoyl]azetidin-3-yl}-N-methylformamido)-N-[(8S,14S)-22-ethyl-4-hydroxy-21-[2-(methoxymethyl)pyridin-3-yl]-18,18-dimethyl-9,15-dioxo-16-oxa-10,22,28-triazapentacyclo[18.5.2.1^2,^6.1^10,^14.0^23,^27]nonacosa-1(26),2,4,6(29),20,23(27),24-heptaen-8-yl]-3-methylbutanamide] | < 5000 nM | 100 to 1000 nM | – | – | – |
| C=CC(=O)N1CC[C@H](C(=O)N(C)[C@H](C(=O)N[C@H]2Cc3cc(O)cc(c3)-c3ccc4c(c3)c(c(-c3cncc(CN(C)C)c3)n4CC)CC(C)(C)COC(=O)[C@@H]3CCCN(N3)C2=O)C(C)C)C1 [Example A73] | < 5000 nM | 10 to 100 nM | – | – | – |
| C=CC(=O)N1CC[C@H](C(=O)N(C)[C@H](C(=O)N[C@H]2Cc3cc(O)cc(c3)-c3ccc4c(c3)c(c(-c3cnccc3C)n4CC)CC(C)(C)COC(=O)[C@@H]3CCCN(N3)C2=O)C(C)C)C1 [Example A77] | < 5000 nM | 10 to 100 nM | – | – | – |
| CCn1c(-c2ccccc2COC)c2c3cc(ccc31)-c1cc(O)cc(c1)C[C@H](NC(=O)[C@H](C(C)C)N(C)C(=O)[C@H]1CCN(C(=O)/C=C/CN(C)C)C1)C(=O)N1CCC[C@H](N1)C(=O)OCC(C)(C)C2 [Example A79] | < 5000 nM | 10 to 100 nM | – | – | – |
| C=CC(=O)N1CC[C@H](C(=O)N(C)[C@H](C(=O)N[C@H]2Cc3cc(O)cc(c3)-c3ccc4c(c3)c(c(-c3c(CCOC)cccc3OC)n4CC)CC(C)(C)COC(=O)[C@@H]3CCCN(N3)C2=O)C(C)C)C1 [Example A80] | < 5000 nM | 100 to 1000 nM | – | – | – |
| C=CC(=O)N1CC[C@H](C(=O)N(C)[C@H](C(=O)N[C@H]2Cc3cc(O)cc(c3)-c3ccc4c(c3)c(c(-c3cc(F)cnc3COC)n4CC)CC(C)(C)COC(=O)[C@@H]3CCCN(N3)C2=O)C(C)C)C1 [Example A82] | < 5000 nM | 10 to 100 nM | – | – | – |
| C=CC(=O)N1CC[C@H](C(=O)N(C)[C@H](C(=O)N[C@H]2Cc3cc(O)cc(c3)-c3ccc4c(c3)c(c(-c3cncc(COC)c3)n4CC)CC(C)(C)COC(=O)[C@@H]3CCCN(N3)C2=O)C(C)C)C1 [Example A83] | < 5000 nM | 10 to 100 nM | – | – | – |
| C=CC(=O)N1CC[C@H](C(=O)N(C)[C@H](C(=O)N[C@H]2Cc3cc(O)cc(c3)-c3ccc4c(c3)c(c(-c3ncccc3COC)n4CC)CC(C)(C)COC(=O)[C@@H]3CCCN(N3)C2=O)C(C)C)C1 [Example A84] | < 5000 nM | 100 to 1000 nM | – | – | – |
| C=CC(=O)N1CC[C@H](C(=O)N(C)[C@H](C(=O)N[C@H]2Cc3cc(O)cc(c3)-c3ccc4c(c3)c(c(-c3nccnc3COC)n4CC)CC(C)(C)COC(=O)[C@@H]3CCCN(N3)C2=O)C(C)C)C1 [Example A85] | < 5000 nM | 100 to 1000 nM | – | – | – |
| C=CC(=O)N1CC[C@H](C(=O)N(C)[C@H](C(=O)N[C@H]2Cc3cc(O)cc(c3)-c3ccc4c(c3)c(c(-c3ccncc3)n4C(C)(C)C#N)CC(C)(C)COC(=O)[C@@H]3CCCN(N3)C2=O)C(C)C)C1 [Example A86] | < 5000 nM | 10 to 100 nM | – | – | – |
| CCn1c(-c2cnccc2COC)c2c3cc(ccc31)-c1cc(O)cc(c1)C[C@H](NC(=O)[C@H](C(C)C)N(C)C(=O)[C@H]1CCN(C(=O)/C=C/CN(C)C)C1)C(=O)N1CCC[C@H](N1)C(=O)OCC(C)(C)C2 [Example A87] | < 5000 nM | 10 to 100 nM | – | – | – |
| C=CC(=O)N1CC[C@H](C(=O)N(C)[C@H](C(=O)N[C@H]2Cc3cc(O)cc(c3)-c3ccc4c(c3)c(c(-c3ccc(N5CCN(C)CC5)nc3)n4CC)CC(C)(C)COC(=O)[C@@H]3CCCN(N3)C2=O)C(C)C)C1 [Example A89, (2S)-N-[(8S,14S)-22-ethyl-4-hydroxy-18,18-dimethyl-21-[6-(4-methylpiperazin-1-yl)pyridin-3-yl]-9,15-dioxo-16-oxa-10,22,28-triazapentacyclo[18.5.2.1^2,^6.1^10,^14.0^23,^27]nonacosa-1(26),2,4,6(29),20,23(27),24-heptaen-8-yl]-3-methyl-2-{N-methyl-1-[(3S)-1-(prop-2-enoyl)pyrrolidin-3-yl]formamido}butanamide] | < 5000 nM | 10 to 100 nM | – | – | – |
| C=CC(=O)N1CC[C@H](C(=O)N(C)[C@H](C(=O)N[C@H]2Cc3cc(O)cc(c3)-c3ccc4c(c3)c(c(-c3cnccc3COC)n4CC)CC(C)(C)COC(=O)[C@@H]3CCCN(N3)C2=O)C(C)C)C1 [Example A91] | < 5000 nM | < 10 nM | – | – | – |
| C=CC(=O)N1CC[C@H](C(=O)N(C)[C@H](C(=O)N[C@H]2Cc3cc(O)cc(c3)-c3ccc4c(c3)c(c(-c3cccnc3CN(C)C)n4CC)CC(C)(C)COC(=O)[C@@H]3CCCN(N3)C2=O)C(C)C)C1 [Example A92] | < 5000 nM | 100 to 1000 nM | – | – | – |
| C=CC(=O)N1CC[C@H](C(=O)N(C)[C@H](C(=O)N[C@H]2Cc3cc(O)cc(c3)-c3ccc4c(c3)c(c(-c3cccnc3COC)n4CC#N)CC(C)(C)COC(=O)[C@@H]3CCCN(N3)C2=O)C(C)C)C1 [Example A93] | < 5000 nM | 10 to 100 nM | – | – | – |
| C=CC(=O)N1CC[C@H](C(=O)N(C)[C@H](C(=O)N[C@H]2Cc3nc(cs3)-c3ccc4c(c3)c(c(-c3cccnc3COC)n4CC)CC(C)(C)COC(=O)[C@@H]3CCCN(N3)C2=O)C(C)C)C1 [Example A94] | < 5000 nM | 10 to 100 nM | – | – | – |
| CCn1c(-c2cccnc2COC)c2c3cc(ccc31)-c1cc(O)cc(c1)C[C@H](NC(=O)[C@H](C(C)C)N(C)C(=O)[C@H]1CCN(C(=O)C#CCN3CCOCC3)C1)C(=O)N1CCC[C@H](N1)C(=O)OCC(C)(C)C2 [Example A95, (2S)-N-[(8S,14S)-22-ethyl-4-hydroxy-21-[2-(methoxymethyl)pyridin-3-yl]-18,18-dimethyl-9,15-dioxo-16-oxa-10,22,28-triazapentacyclo[18.5.2.1^2,^6.1^10,^14.0^23,^27]nonacosa-1(26),2,4,6(29),20,23(27),24-heptaen-8-yl]-3-methyl-2-{N-methyl-1-[(3S)-1-[4-(morpholin-4-yl)but-2-ynoyl]pyrrolidin-3-yl]formamido}butanamide] | < 5000 nM | 10 to 100 nM | – | – | – |
| CCn1c(-c2cccnc2COC)c2c3cc(ccc31)-c1cc(O)cc(c1)C[C@H](NC(=O)[C@H](C(C)C)N(C)C(=O)[C@H]1CCN(C(=O)C#CCN(C)C)C1)C(=O)N1CCC[C@H](N1)C(=O)OCC(C)(C)C2 [Example A96] | < 5000 nM | < 10 nM | – | – | – |
| CCn1c(-c2cccnc2COC)c2c3cc(ccc31)-c1cc(O)cc(c1)C[C@H](NC(=O)[C@H](C(C)C)N(C)C(=O)C1CN(C(=O)C#CCN(C)C)C1)C(=O)N1CCC[C@H](N1)C(=O)OCC(C)(C)C2 [Example A97] | < 5000 nM | 10 to 100 nM | – | – | – |
| C=CC(=O)N1CC[C@H](C(=O)N(C)[C@H](C(=O)N[C@H]2Cc3cc(O)cc(c3)-c3ccc4c(c3)c(c(-c3ccc(C5CCN(C)CC5)nc3)n4CC)CC(C)(C)COC(=O)[C@@H]3CCCN(N3)C2=O)C(C)C)C1 [Example A98] | < 5000 nM | 10 to 100 nM | – | – | – |
| C=CC(=O)N1CC[C@H](C(=O)N(C)[C@H](C(=O)N[C@H]2Cc3cc(O)cc(c3)-c3ccc4c(c3)c(c(-c3cnn(C)c3)n4CC)CC(C)(C)COC(=O)[C@@H]3CCCN(N3)C2=O)C(C)C)C1 [Example A99] | < 5000 nM | 10 to 100 nM | – | – | – |
| CCn1c(-c2cccnc2[C@H](C)OC)c2c3cc(ccc31)-c1cc(O)cc(c1)C[C@H](NC(=O)[C@H](C(C)C)N(C)C(=O)c1nc(NC(=O)/C=C/CN(C)C)cs1)C(=O)N1CCC[C@H](N1)C(=O)OCC(C)(C)C2 [Example A258] | – | – | 1000 to 10000 nM | < 5000 nM | 100 to 1000 nM |
